Laboratory results taken from patent US20160129089A1, “COMBINATION THERAPY” (ANTISENSE THERAPEUTICS LTD, priority 2013, published 2016).
Entries after “also recorded” stand apart in the source; their conditions may differ. Like-named read-outs stand apart in the source and are kept apart here. Marks after values point to notes of the source that are not given here.

How the values were obtained:
[1] = test system: serum insulin like growth factor I (IGF-I); assay: Phase II trial in patients with acromegaly: serum IGF-I reduction; format: in vivo, human
Source text: The primary endpoints or main purposes of the trial were (i) to evaluate the safety and tolerability of ATL1103 in patients with acromegaly, and (ii) to evaluate the single dose and multiple dose pharmacokinetic profiles of ATL1103 via the subcutaneous route in patients with acromegaly.

[2] = test system: growth hormone binding protein (GHBP); assay: Phase I trial: exploratory PD, circulating GHBP; format: in vivo, human; details: for GHBP % change from pre-dose / GHBP mean change from pre-dose: Stage B, n=6
Description: (§1) As defined in the statistical analysis plan, the effect of ATL1103 on serum IGF-I was assessed as a change in IGF-I levels versus baseline (starting point) readings for those subjects who received treatment (ATL1103). Pre-dose baseline levels of IGF-I were recorded prior to the commencement of dosing and then measured at weekly intervals until the end of the monitoring period. […] Other exploratory objectives of the study investigated the drug's mechanism of action and broader pharmacological profile, including the pharmacodynamic effects on levels of growth hormone binding protein (GHBP), insulin-like growth factor binding protein 3 (IGFBP-3), acid labile subunit of the insulin-like growth factor binding protein complex (ALS), and growth hormone (GH), as well as in vitro mitogenic and apoptotic parameters.

[3] = test system: human growth hormone receptor mRNA; assay: Inhibition of human growth hormone receptor mRNA levels by antisense oligonucleotides, quantitative real-time PCR, MCF7 cells; format: cell-based; set-up: concentration or dose not given beside the values; details: averages from three experiments
[4] = Phase I trial: safety and tolerability of subcutaneous ATL1103 in healthy adult male subjects
Description: (§3) The primary objective of the Phase I trial was to assess the safety, tolerability and pharmacokinetics (pK) of ATL1103.
(§4) The Phase I trial was a randomized, placebo controlled, double blind study of single ascending doses and multiple doses of ATL1103 in healthy adult male subjects aged between 18 and 45 years. In the single ascending dose stage of the trial, 24 subjects were administered four dose levels of ATL1103 as a single injection starting at 25 mg and escalating to 75, 250 and 400 mg or placebo. The multiple dose stage was undertaken in 12 subjects, 8 who were to receive six subcutaneous doses of 250 mg of ATL1103 and 4 subjects who received placebo administered on days 1, 3, 5, 7, 14 and 21. Subjects were monitored out to day 35.

[5] = test system: insulin-like growth factor acid-labile subunit (ALS); assay: Phase I trial: exploratory PD, ALS; format: in vivo, human; details: for ALS % change from pre-dose / ALS mean change from pre-dose: Stage B, n=6
Description: as §1

[6] = test system: growth hormone (GH); assay: Phase I trial: exploratory PD, growth hormone levels; format: in vivo, human; details: listed as ATL1103
Description: as §1

[7] = test system: serum IGF-I; assay: Monotherapy and combination mouse study: serum IGF-I; format: in vivo, mice
Source text: (§2) The GHr and IGF-I RNA data were statistically analysed using one-way ANOVA followed by Dunnetts test when comparing treated to saline control. The sIGF-I data were statistically analyzed using one-way […] comparisons.

[8] = human, in vivo, sc
Source text: The Phase I trial was a randomized, placebo controlled, double blind study of single ascending doses and multiple doses of ATL1103 in healthy adult male subjects aged between 18 and 45 years. […] Subjects were monitored out to day 35.

[9] = human, in vivo
Description: as §3, §4

[10] = test system: insulin-like growth factor II (IGF-II); assay: Phase I trial: exploratory PD, IGF-II; format: in vivo, human; details: Stage B, n=6
[11] = test system: liver GHr RNA; assay: Monotherapy and combination mouse study: relative liver GHR RNA; format: in vivo, mice; details: week 3, p=0.001
Source text: as §2

[12] = test system: insulin-like growth factor binding protein 3 (IGF-BP3); assay: Phase I trial: exploratory PD, IGF-BP3; format: in vivo, human; details: for IGF-BP3 % change from pre-dose / IGF-BP3 mean change from pre-dose: Stage B, n=6
Description: as §1

[13] = test system: liver IGF-I RNA; assay: Monotherapy and combination mouse study: relative liver IGF-I RNA; format: in vivo, mice; details: week 3, p=0.001
Source text: as §2

[14] = test system: IGF-I; assay: Phase I trial: pharmacodynamic effect on serum IGF-I levels; format: in vivo, human; details: for Serum IGF-I change from pre-dose, Mean ± SD / Serum IGF-I % change from pre-dose: n=6
Source text: A secondary objective of this study was to obtain data on the pharmacodynamic effects of ATL1103 on the IGF-I levels in the blood of the trial subjects. Reduction of increased levels of serum IGF-I to normal is the therapeutic endpoint in the treatment of the growth disorder acromegaly, and reducing the effects of IGF-I has a potential role in the treatment of diabetic retinopathy, nephropathy and certain forms of cancer.
as §1

[15] = ATL1103 12 mg/kg, 3 times in first week then 2 times weekly
[16] = ATL1103 25 mg/kg, 2 times weekly, compared to saline control

## tcagggcattctttccattc (TCAGGGCATTCTTTCCATTC; chemistry not given here) [ISIS 227452]
[1]; 200 mg per week dose, week 14
  reduction in mean sIGF-I levels: no consistent reduction
[1]; 400 mg per week (twice weekly 200 mg), 4 patients with acromegaly, week 14
  mean reduction in sIGF-I compared to baseline: 30%
[1]; 400 mg per week, 3 patients with lower body weights (58-83 kg, below 85 kg), approx. 4.8-6.9 mg/kg, week 14
  mean reduction in sIGF-I compared to baseline: 38%
[1]; 400 mg per week, 3 patients with lower body weights, week 14
  range of sIGF-I reduction: 28-48%
[1]; twice weekly 200 mg (400 mg per week), over the dosing period
  time course of sIGF-I (FIG. 1): progressive rate of reduction
[2]; Day 7
  GHBP % change from pre-dose: (0%)
  GHBP mean change from pre-dose: -31.2 pmol/L
[2]; Day 21
  GHBP % change from pre-dose: (−16%)
  GHBP mean change from pre-dose: −169.5** pmol/L
[2]; Day 28
  GHBP % change from pre-dose: (−19%)
  GHBP mean change from pre-dose: −233.3* pmol/L
[2]; day 21, p=0.007
  reduction of GHBP: 16%
[2]; day 28, one week past the last dose, p<0.05
  reduction of GHBP: 19%
[3]
  % INHIB (inhibitory effect on hGHR mRNA levels): 79%
[4]; Stage A, ATL1103-treated subjects
  headache, number of events: 5
[4]; Stage A, ATL1103-treated subjects (after single doses of 400 mg)
  influenza-like illness, number of events: 2
[4]; after repeated doses of 250 mg
  influenza-like illness: single doses of 400 mg ATL1103, this was not seen after repeated doses of 250 mg.
[5]; Phase I multiple dose stage
  effect on ALS: significantly reduced
[5]; Day 7
  ALS % change from pre-dose: (−5%)
  ALS mean change from pre-dose: −115.3 mU/ml
[5]; Day 21
  ALS % change from pre-dose: (−9%)
  ALS mean change from pre-dose: −160.7 mU/ml
[5]; Day 28
  ALS % change from pre-dose: (−10%)
  ALS mean change from pre-dose: −188.7* mU/ml
[6]
  effect on GH levels: no effect; also recorded: No treatment-related effects were apparent in growth hormone levels (data not shown)
[7]; ATL1103 25 mg/kg 2 times weekly monotherapy, week 1, compared to baseline control levels, p<0.013
  reduction of sIGF-I: 25%
[7]; ATL1103 25 mg/kg, 2 times weekly, week 1, compared to control saline, p=0.0070
  reduction of sIGF-I: 36.5%
[7]; ATL1103 25 mg/kg, 2 times weekly, week 2, compared to control saline, p=0.004
  reduction of sIGF-I: 41.5%
[7]; ATL1103 25 mg/kg, 2 times weekly, week 3, compared to saline control, p=0.003
  reduction of serum IGF-I: 44.5%
[8]; 25 mg
  AUClast: 3711 ± 822 ng·h/mL
  Cmax: 466 ± 136 ng/mL
  Tmax: 3.25 ± 0.5 h
[8]; 75 mg
  AUClast: 21342 ± 4755 ng·h/mL
  Cmax: 3139 ± 1576 ng/mL
  Tmax: 3.25 ± 0.96 h
[8]; 250 mg
  AUClast: 88942 ± 11295 ng·h/mL
  Cmax: 12383 ± 3000 ng/mL
  Tmax: 2.5 ± 1.29 h
[8]; 400 mg
  AUClast: 151123 ± 29434 ng·h/mL
  Cmax: 14343 ± 2823 ng/mL
  Tmax: 3.25 ± 0.96 h
[9]
  injection site reactions, number of events: adverse events were injection site reactions (13).
  number of treatment-emergent adverse events (TEAE): There were 24 treatment-emergent adverse events (TEAE) in Stage A (19 in the 16 ATL1103-treated
  overall safety and tolerability: ATL1103 was considered safe and generally well tolerated at the doses used in the study
  pain at injection site, number of events: treated subjects most common adverse events reported were pain at injection site (6), headache
  severity of TEAE: subjects, 5 in the 8 placebo-treated subjects), all reported as mild or moderate. In the ATL1103-
  severity of all adverse events: mild to moderate
[10]; Day 7
  IGF-II % change from pre-dose: (−14%)
  IGF-II mean change from pre-dose: −101.8*** ng/ml
[10]; Day 21
  IGF-II % change from pre-dose: (−8%)
  IGF-II mean change from pre-dose: -57.5 ng/mL
[10]; Day 28
  IGF-II % change from pre-dose: (−5%)
  IGF-II mean change from pre-dose: -29.2 ng/mL
[11]; [15]
  reduction of liver GHr RNA: 99%
[11]; [16]
  reduction of liver GHr RNA: 99.7%
[12]; Phase I multiple dose stage
  effect on IGFBP-3: significantly reduced
[12]; Day 7
  IGF-BP3 % change from pre-dose: (−10%)
  IGF-BP3 mean change from pre-dose: −310.5** ng/ml
[12]; Day 21
  IGF-BP3 % change from pre-dose: (−8%)
  IGF-BP3 mean change from pre-dose: −228.3* ng/ml
[12]; Day 28
  IGF-BP3 % change from pre-dose: (−5%)
  IGF-BP3 mean change from pre-dose: -160.5 ng/mL
[13]; [15]
  reduction of liver IGF-I RNA: 64.3%
[13]; [16]
  reduction of liver IGF-I RNA: 76.2%
[14]; Stage B, 250 mg multiple dose, Day 3
  Serum IGF-I change from pre-dose, Mean ± SD: +2.65 ± 9.47 nmol/L
[14]; Stage B, from day 14 on, listed as ATL1103
  trend of serum IGF-I levels versus baseline: trend in reduction in IGF-I levels from day 14 to day 28; also recorded: For IGF-I there was a clear trend for mean levels to be lower than baseline on days D14, 21, 28, 35 of
[14]; Stage B, Day 3
  Serum IGF-I % change from pre-dose: 12%
[14]; Stage B, Day 5
  Serum IGF-I % change from pre-dose: 6%
  Serum IGF-I change from pre-dose, Mean ± SD: +0.32 ± 7.42 nmol/L
[14]; Stage B, Day 7
  Serum IGF-I % change from pre-dose: 6%
  Serum IGF-I change from pre-dose, Mean ± SD: +0.77 ± 7.51 nmol/L
[14]; Stage B, Day 14
  Serum IGF-I % change from pre-dose: −2%
  Serum IGF-I change from pre-dose, Mean ± SD: -1.43 ± 7.19 nmol/L
[14]; Stage B, Day 21
  Serum IGF-I % change from pre-dose: −7%
  Serum IGF-I change from pre-dose, Mean ± SD: -3.40 ± 3.59 nmol/L
[14]; Stage B, Day 28
  Serum IGF-I % change from pre-dose: −7%
  Serum IGF-I change from pre-dose, Mean ± SD: -3.43 ± 7.53 nmol/L
[14]; Stage B, Day 35
  Serum IGF-I % change from pre-dose: −1%
  Serum IGF-I change from pre-dose, Mean ± SD: -1.9 ± 5.08 nmol/L
[14]; day 21, p=0.034 one sided t-test
  reduction in mean IGF-I levels versus baseline: 7%
